Measured values from ChEMBL document CHEMBL1132615, “Structure--activity relationships of lysophosphatidic acid: conformationally restricted backbone mimetics” (J Med Chem, 1999).

Key:
[1] = Relative potency was evaluated for its ability to mobilize intracellular calcium in MDA MB231 cells.*did not reach a maximal response at the highest concentration used; format: functional, cell-based; conditions: Homo sapiens, MDA-MB-231
[2] = Relative potency was evaluated for its ability to mobilize intracellular calcium in MDA MB231 cells.; format: functional, cell-based; conditions: Homo sapiens, MDA-MB-231

| EC50 [1] [nM] | EC50 [2] [nM] | Compound |
| --- | --- | --- |
| 3 | – | CCCCCCCC/C=C\CCCCCCCC(=O)NCCOP(=O)(O)O |
| – | 460 | CCCCCCCCCCCCCCCC(=O)Nc1cccc(OP(=O)(O)O)c1 |
| – | 5 | CCCCCCCC/C=C\CCCCCCCC(=O)OCC(O)COP(=O)(O)O (single isomer, unassigned) [LYSOPHOSPHATIDIC ACID] |
| – | 310 | CCCCCCCCCCCCCCCC(=O)Oc1cccc(OP(=O)(O)O)c1 |
| 4710 | – | CCCCCCCCCCCC(=O)Oc1ccc(C(=O)c2ccc(OP(=O)(O)O)cc2)cc1 |
| – | 1830 | CCCCCC/C=C\CCCCCCCC(=O)Nc1ccc(OP(=O)(O)O)cc1 |
| 1990 | – | CCCCCCCCCCCCCC(=O)Oc1ccc(C(=O)c2ccc(OP(=O)(O)O)cc2)cc1 |
| 850 | – | CCCCCC/C=C\CCCCCCCC(=O)Oc1cccc(OP(=O)(O)O)c1 |
| – | 460 | CCCCCC/C=C\CCCCCCCC(=O)Nc1cccc(OP(=O)(O)O)c1 |
| 1560 | – | CCCCCCCCCCCCCCCC(=O)Nc1ccc(OP(=O)(O)O)cc1 |
| > 500000 | – | CCCCCCCCCC(=O)Oc1ccc(C(=O)c2ccc(OP(=O)(O)O)cc2)cc1 |
| > 500000 | – | CCCCCCCC(=O)Oc1ccc(C(=O)c2ccc(OP(=O)(O)O)cc2)cc1 |
